Where a SMILES comes first, the peptide text is derived from it. [ ]: non-standard residue; d: D form. ξ: configuration not given here. ξLac(3-iPr) = CC(C)CC(O)C(=O)O; NMeV = CN[C@H](C(=O)O)C(C)C; βAla = NCCC(=O)O
Experiments:
[1] = system: washed mouse platelets; assay: ADP-induced platelet ATP release (luciferin/luciferase); assay type: cell-based; conditions: ADP 5 μM
Method: (§1) Washed platelets were prepared as previously described by Zhongren Ding et al.. Whole blood was collected from the abdominal aorta using a syringe containing 3.8% sodium citrate (9:1, V/V) as an anticoagulant. Citrated blood (2 mL) was centrifuged at room temperature at 300× g for 2 min to obtain platelet-rich plasma (PRP). Platelets were obtained by the further centrifugation of PRP at 700× g for 2 min, and resuspended in Tyrode’s buffer (138 mM of NaCl, 2.7 mM of KCl, 1 mM of MgCl2, 3 mM of NaH2PO4, 5 mM of glucose, 10 mM of HEPES, pH 7.4) with 0.02 U/mL apyrase (A6410, Sigma-Aldrich, St. Louis, MO, USA) to a density of 3 × 10^8 of platelets/mL for use.
(§2) The platelet aggregation and release assay were performed as previously reported. Washed mouse platelets were treated with isaridin E (6.25, 12.5, 25, 50, 100, or 200 μM) or vehicle or clopidogrel (20 μM) at 37 °C for 30 min, followed by stimulation with ADP (01905, Sigma-Aldrich, St. Louis, MO, USA, 5 μM), collagen (C7661, Sigma-Aldrich, St. Louis, MO, USA, 1 μg/mL) or thrombin (T6884, Sigma-Aldrich, St. Louis, MO, USA, 0.02 U/mL). The platelet aggregation was assessed using a lumi-aggregometer (700-2, Chrono-Log, Havertown, PA, USA) with a stirring speed of 1200 rpm at 37 °C. The release of ATP was simultaneously monitored using Luciferin/luciferase reagent (395, Chrono-Log, Havertown, PA, USA). Aggregation traces and ATP release traces were monitored continuously for at least 10 min.

[2] = system: Akt; assay: ADP-induced phosphorylation of Akt, Western blot; assay type: cell-based, human; conditions: 50 μM, Meg-01 cells
Method: Western blotting was performed as described in our previous study. Meg-01 cells were lysed with protein lysis buffer (P0013, Beyotime Biotechnology, Haimen, China) containing a protease inhibitor cocktail (539131, Millipore, Billerica, MA, USA) and phosphatase inhibitor cocktail (K1012, APExBIO, Houston, TX, USA). The samples (20 μg) were then separated by 8% SDS-PAGE gel and transferred onto PVDF membranes. The PDVF membranes were incubated with primary antibodies at 4 °C for 12 h. After incubating with the appropriate HRP-conjugated secondary antibodies (7076, 7074, Cell Signaling Technology, Danvers, MA, USA), blots were detected with chemiluminescent HRP substrate (P90719, Millipore, Billerica, MA, USA) using the ChemiDoc XRS+ system (BIO-RAD, Hercules, CA, USA). Primary antibodies against the following antigens were listed: PI3K (4257, Cell Signaling Technology, Danvers, MA, USA), Phospho-PI3K (ab226842, Abcam, Cambridge, UK), Akt (4691, Cell Signaling Technology, Danvers, MA, USA), Phospho-Akt (4056, Cell Signaling Technology, Danvers, MA, USA), and β-actin (66009-1, Proteintech, Rosemont, IL, USA).

[3] = system: washed mouse platelets; assay: Thrombin-induced platelet aggregation; assay type: cell-based; conditions: thrombin 0.02 U/mL, p > 0.05
Method: as §1
(§3) The platelet aggregation and release assay were performed as previously reported. […] The platelet aggregation was assessed using a lumi-aggregometer (700-2, Chrono-Log, Havertown, PA, USA) with a stirring speed of 1200 rpm at 37 °C. The release of ATP was simultaneously monitored using Luciferin/luciferase reagent (395, Chrono-Log, Havertown, PA, USA). Aggregation traces and ATP release traces were monitored continuously for at least 10 min.

[4] = FeCl3-induced carotid artery thrombosis mouse model; assay type: in vivo, C57BL/6J mice
Method: The mouse model of carotid artery thrombosis induced by FeCl3 injury was performed and monitored by a stereoscopic fluorescence microscope as previously described. […] Mice were then anesthetized with a single dose of sodium pentobarbital (60 mg/kg, i.p., Sigma-Aldrich, St. Louis, MO, USA). Rhodamine 6G (83697, Sigma-Aldrich, St. Louis, MO, USA; 0.5 mg/mL) was injected into the right jugular vein to label platelets. The carotid artery (CA) was carefully exposed, and a black "U"-shaped plastic (3 mm) was inserted under the CA gently to block background fluorescence. Filter papers (1 × 2 mm) with 7.5% saturated FeCl3 solution were applied topically for 1 min, and thrombus formation in the injured CA was recorded in real time using a stereoscopic fluorescence microscope (M205FA, Leica, Wetzlar, Germany) for 12 min.

[5] = set-up: method as in PMID 21438588; conditions: cited from earlier work
[6] = system: washed mouse platelets; assay: Collagen-induced platelet aggregation; assay type: cell-based; conditions: collagen 1 μg/mL, p > 0.05
Method: as §1, §3

[7] = Coagulation parameters (APTT, PT, TT, FIB) after single intragastric dose; assay type: in vivo, mice; conditions: 3 h
Method: Mice were intragastrically administrated with a single dose of isaridin E (100 mg/kg) or vehicle at 3 h before anesthesia. Whole blood was drawn from the abdominal aorta and collected in K2EDTA anticoagulant tubes to evaluate the hematologic parameters with an automatic hematology analyzer (BC-2800 vet, Mindray, Shenzhen, China). The citrated blood was centrifuged at 1500× g (25 °C) for 15 min to obtain the platelet-poor plasma (PPP). PPP was then used to measure the coagulation parameters, including ATPP, PT, TT, and FIB, with an automated coagulation analyzer (RAC-030, Rayto, Shenzhen, China).

[8] = system: washed mouse platelets; assay: ADP-induced platelet aggregation (light transmission aggregometry); assay type: cell-based; conditions: ADP 5 μM; for ADP-induced maximum platelet aggregation, % of vehicle control: 30 min pretreatment
Method: as §1, §2

[9] = Tail-bleeding assay
Method: Mice were assigned randomly to […] and intragastrically administrated with a single dose of vehicle, isaridin E (12.5, 25, 50, or 100 mg/kg), or clopidogrel (10 mg/kg) at 3 h before the cutting-tail experiment. Tails were transected at a distal margin of 5 mm and were immediately immersed into 10 mL of saline at 37 °C. The bleeding time was recorded as when the observed bleeding ceased.

[10] = system: human neutrophils; set-up: method as in PMID 23822585; conditions: cited from earlier work
[11] = 100 mg/kg single oral gavage, n = 5 mice

CC(C)CC1OC(=O)CCNC(=O)[C@H](C(C)C)N(C)C(=O)[C@H](C(C)C)N(C)C(=O)[C@H](Cc2ccccc2)NC(=O)[C@@H]2CCCN2C1=O (stereo partly drawn) [Isaridin E, cyclo-[(OH) (S)-HMPA^1-L-Pro^2-L-Phe^3-N-Me-L-Val^4-N-Me-L-Val^5-β-Ala^6(CO)]] (cyclo(F[NMeV][NMeV][βAla][ξLac(3-iPr)]P))
ADP-induced platelet ATP release, % of vehicle control ([1]; 6.25 μM): 60.7 ± 7.9% | ADP-induced platelet ATP release, % of vehicle control ([1]; 12.5 μM): 31.7 ± 4.8% | IC50 ([1]; Mus musculus, Platelet, read-out: IC50 inhibiting ADP-induced platelet ATP release): 7.9 ± 1.1 µM | ADP-induced phosphorylation of Akt ([2]; 30 min, ADP 5 μM 5 min): significantly suppressed | total protein expression of Akt [2]: without altering | maximum platelet aggregation in response to thrombin [3]: no significant differences | maximum thrombus size ([4]; 12.5, 25, 50, or 100 mg/kg oral gavage at 1, 24, 48 h before FeCl3 injury, at 12 min, dose-dependent): reduced | time to the first thrombus formation ([4]; 12.5, 25, 50, or 100 mg/kg oral gavage at 1, 24, 48 h before FeCl3 injury, dose-dependent): significantly prolonged | antithrombotic effects relative to clopidogrel at 10 mg/kg ([4]; 50 or 100 mg/kg): comparable to that of clopidogrel | insecticidal activity [5]: insecticidal activity | maximum platelet aggregation in response to collagen [6]: no significant differences | effect on general coagulation (APTT, TT, PT, FIB) ([7]; 100 mg/kg single intragastric administration): no obvious effects | ATPP [7, 11]: 32.4 ± 1.0 s | FIB (fibrinogen) [7, 11]: 3.1 ± 0.1 g/L | PT (prothrombin time) [7, 11]: 12.1 ± 0.4 s | TT (thrombin time) [7, 11]: 14.0 ± 0.8 s | ADP-induced maximum platelet aggregation, % of vehicle control ([8]; 12.5 μM): 75.6 ± 2.6% | ADP-induced maximum platelet aggregation, % of vehicle control ([8]; 25 μM): 55.7 ± 4.8% | ADP-induced maximum platelet aggregation, % of vehicle control ([8]; 50 μM): 26.6 ± 3.5% | reduction of ADP-induced platelet aggregation versus vehicle control ([8]; 50 μM, extent similar to clopidogrel (20 μM)): 73.4 ± 3.5% | ADP-induced maximum platelet aggregation, % of vehicle control ([8]; 100 μM): 15.6 ± 2.9% | ADP-induced maximum platelet aggregation, % of vehicle control ([8]; 200 μM): 8.1 ± 0.8% | IC50 ([8]; Mus musculus, Platelet, read-out: IC50 inhibiting ADP-induced platelet aggregation): 26.1 ± 2.9 µM | tail bleeding time versus vehicle control ([9]; 12.5, 25, 50 or 100 mg/kg, single intragastric dose 3 h before, n = 5 mice): no obvious effects | bleeding time compared with clopidogrel (10 mg/kg) ([9]; isaridin E 12.5-100 mg/kg): significantly reduced | cytotoxicity in human neutrophils [10]: without cytotoxicity | elastase release induced by FMLP ([10]; human neutrophils): inhibiting | superoxide anion generation induced by FMLP ([10]; human neutrophils): inhibiting

— paper PMC8780978, “Antiplatelet and Antithrombotic Effects of Isaridin E Isolated from the Marine-Derived Fungus via Downregulating the PI3K/Akt Signaling Pathway” (Marine Drugs, 2021)
